Assay results from patent publication US20110288115A1, “TREATMENT OF VAGALLY-MEDIATED SPECTRUM DISORDERS” (AVMEDIS LLC, priority 2010, published 2011).

Columns and labels:
[1] = test system: patient suffering from alcohol dependence; assay: Treatment of alcohol abuse in a patient with alcohol dependence; format: in vivo; conditions: person; 5 mg per day via nasal spray; within one month; patient report
Procedure: The patient is a person suffering from alcohol dependence and complaining of symptoms including abdominal pain, confusion, nausea and vomiting, neglecting to eat, and shaking in the morning. The patient is prescribed granisetron 5 mg per day taken via nasal spray.

[2] = test system: patient with panic disorder; assay: Treatment of panic disorder in a patient with a 5-HT3 receptor antagonist; format: in vivo; conditions: patient previously treated largely unsuccessfully with SSRIs, MAOIs, tricyclic antidepressants, benzodiazepines; 8 mg/day to 30 mg/day for 5 to 60 days
Procedure: A patient presents with symptoms including rapid heartbeat, perspiration, dizziness, dyspnea, trembling, uncontrollable fear, and hyperventilation, indicative of panic disorder. The patient has previously been treated, largely unsuccessfully, with selective serotonin reuptake inhibitors (SSRIs), monoamine oxidase inhibitors (MAOIs), tricyclic antidepressants, and benzodiazepines. The patient is treated for 5 to 60 days sequentially with ondansetron administered at a dose of 8 mg/day to 30 mg/day.

## CN1C2CCCC1CC(NC(=O)c1nn(C)c3ccccc13)C2 (stereo not drawn) [granisetron]
[1]
  control over drinking: able to exert control over their drinking
  improvement of symptoms (abdominal pain, confusion, nausea and vomiting, neglecting to eat, shaking in the morning): all of the above symptoms have improved considerably

## Cc1nccn1CC1CCc2c(c3ccccc3n2C)C1=O (stereo not drawn) [ondansetron, 1,2,3,9-tetrahydro-9-methyl-3-[(2-methyl-1H-imidazol-1-yl]methyl]-4H-carbazol-4-one]
[2]
  amelioration of panic disorder (severity and frequency of panic attacks and their symptoms): long-lasting amelioration of panic disorder
